# Experimental data taken from ChEMBL document CHEMBL1201862, “PubChem BioAssay data set” (2004).
# Active and inactive are the calls of the source.
# Assays:
# [1] = target: T1, Corticotropin-releasing factor receptor 2/Corticotropin-releasing factor-binding protein (Homo sapiens, UniProt P24387+Q13324); assay: activators of CRF receptor 2 with binding protein – uHTS hits, confirmation (AID 602473); assay type: functional; conditions: read-out: EC50_Mean
# T1 sequence (Q13324 whole entry): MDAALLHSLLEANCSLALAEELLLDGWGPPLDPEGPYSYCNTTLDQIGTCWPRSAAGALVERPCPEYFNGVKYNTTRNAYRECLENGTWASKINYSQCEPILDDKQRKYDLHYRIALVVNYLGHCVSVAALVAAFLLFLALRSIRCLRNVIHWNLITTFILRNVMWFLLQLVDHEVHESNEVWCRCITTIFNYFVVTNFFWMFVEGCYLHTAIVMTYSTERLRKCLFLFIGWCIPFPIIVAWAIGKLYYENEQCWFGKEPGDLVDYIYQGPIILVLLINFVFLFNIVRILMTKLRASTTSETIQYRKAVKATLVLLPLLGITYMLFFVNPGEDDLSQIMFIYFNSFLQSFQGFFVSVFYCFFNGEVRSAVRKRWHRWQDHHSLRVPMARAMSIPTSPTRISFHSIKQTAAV
# T1 sequence (P24387 whole entry): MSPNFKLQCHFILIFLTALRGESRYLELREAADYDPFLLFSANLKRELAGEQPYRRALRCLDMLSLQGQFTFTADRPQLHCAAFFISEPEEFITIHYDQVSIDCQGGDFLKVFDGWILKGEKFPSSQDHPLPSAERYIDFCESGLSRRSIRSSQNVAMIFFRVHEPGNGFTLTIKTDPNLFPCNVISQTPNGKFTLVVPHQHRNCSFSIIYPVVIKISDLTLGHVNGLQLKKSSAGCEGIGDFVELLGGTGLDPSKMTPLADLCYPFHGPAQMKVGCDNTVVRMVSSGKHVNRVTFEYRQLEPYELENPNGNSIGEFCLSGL
# [2] = Luminescence Cell-Based Dose Response HTS to Identify Inhibitors of 5'UTR Stem-Loop Driven Prion Protein mRNA Translation in H4 Neuroglioblastoma Cells. [Related pubchem assays: 1827 (Project Summary), 1813 (Primary HTS)]; assay type: functional
# [3] = target: T1, Corticotropin-releasing factor receptor 2/Corticotropin-releasing factor-binding protein; assay: Dose Response confirmation of uHTS hits for small molecule antagonists of the CRF-binding protein and CRF-R2 receptor complex.; assay type: functional; conditions: read-out: IC50_Mean
# [4] = alpha-synuclein stem-loop luciferase translation blockers – H4 neuroglioma cells, luminescence, confirmation (AID 1988); assay type: functional, cell-based
# [5] = luciferase reporter signal suppression in cells – H4 neuroglioma cells, luminescence, dose response (AID 1990); assay type: functional, cell-based
# [6] = target: T2, Polyadenylate-binding protein 1 (Homo sapiens, UniProt P11940); assay: MLLE binding blockers, Cy5 peptide tracer – biochemical, fluorescence polarization, Cy5-PAM2 peptide, secondary, miRNA deadenylation inhibitor project, dose response (AID 602260); assay type: functional; conditions: read-out: IC50_Mean
# [7] = target: T2, Polyadenylate-binding protein 1; assay: MLLE domain peptide-binding blockers, IC50 – biochemical, fluorescence polarization, FITC-PAM2 peptide, dose response (AID 602259); assay type: functional; conditions: read-out: IC50_Mean
# [8] = target: Cytochrome P450 2C9 (Homo sapiens, UniProt P11712)
# [9] = tested on: INS1; assay: INS-1E survival protection against cytokine death – cell-based, luminescence, retest, dose response (AID 449756); assay type: functional; conditions: Rattus norvegicus;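 further: cell death triggered by IL-1 beta plus TNF-alpha plus IFN-gamma mixture; protective hits raise ATP signal compared with cytokine alone wells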
# [10] = viability of PTEN-deleted HCT116 cells – cell-based, HCT116 PTEN knockout, dose response (AID 1047); assay type: functional;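 further: HCT116 colon tumor cells with PTEN knocked out; cells exposed to compound for 60 hours before readout; potency for loss of cell viability measured by luminescence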
# [11] = viability of HCT116 lacking mutant beta-catenin – cell-based, human colon tumor, dose response (AID 1045); assay type: functional;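 further: HCT116 colon tumor cells with beta catenin knocked out; cells exposed to compound for 60 hours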
# [12] = tested on: Vero; assay: cells; assay type: functional; conditions: Chlorocebus sabaeus
# [13] = tested on: Streptococcus sp. 'group A'; assay: Streptococcus pyogenes SK(-)GAS viability under kanamycin – luminescence, BacTiterGlo, confirmation, counter-screen for streptokinase expression inhibitor project, dose response (AID 1900); assay type: functional, organism-based
# [14] = target: T3, Streptokinase A (Streptococcus pyogenes serotype M1, UniProt P10520); assay: viability-normalized secreted streptokinase activity reduction – plasminogen activation absorbance, OD405, dose response (AID 1914); assay type: functional, Streptococcus pyogenes M1 GAS;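 further: secreted streptokinase activity via plasminogen activation per viability signal from cell pellet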
# T3 sequence (P10520 whole entry): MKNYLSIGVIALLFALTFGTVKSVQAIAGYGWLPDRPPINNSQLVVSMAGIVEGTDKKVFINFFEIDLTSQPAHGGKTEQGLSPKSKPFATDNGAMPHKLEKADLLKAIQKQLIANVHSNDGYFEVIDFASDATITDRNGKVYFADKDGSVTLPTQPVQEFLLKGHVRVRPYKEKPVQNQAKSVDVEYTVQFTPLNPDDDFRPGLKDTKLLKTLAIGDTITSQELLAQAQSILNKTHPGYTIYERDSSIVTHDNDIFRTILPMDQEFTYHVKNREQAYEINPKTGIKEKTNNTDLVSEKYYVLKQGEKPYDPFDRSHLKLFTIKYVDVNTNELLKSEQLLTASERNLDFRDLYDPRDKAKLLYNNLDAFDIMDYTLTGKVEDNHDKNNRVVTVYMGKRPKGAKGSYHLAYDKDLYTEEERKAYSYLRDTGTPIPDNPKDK
# [15] = target: T4, Heat shock factor protein 1 (Mus musculus, UniProt P38532); assay: enhancement of HSF1-driven luciferase signal – cell-based, NIH3T3, luminescence, dose retest, confirmation (AID 435004); assay type: functional;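 further: stress induced by proteasome inhibitor MG132 added 30 min after compound; luciferase reporter driven by HSF1 response element in NIH3T3 cells; actives raise luminescence as potentiators of the MG132 stress response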
# T4 sequence (P38532 whole entry): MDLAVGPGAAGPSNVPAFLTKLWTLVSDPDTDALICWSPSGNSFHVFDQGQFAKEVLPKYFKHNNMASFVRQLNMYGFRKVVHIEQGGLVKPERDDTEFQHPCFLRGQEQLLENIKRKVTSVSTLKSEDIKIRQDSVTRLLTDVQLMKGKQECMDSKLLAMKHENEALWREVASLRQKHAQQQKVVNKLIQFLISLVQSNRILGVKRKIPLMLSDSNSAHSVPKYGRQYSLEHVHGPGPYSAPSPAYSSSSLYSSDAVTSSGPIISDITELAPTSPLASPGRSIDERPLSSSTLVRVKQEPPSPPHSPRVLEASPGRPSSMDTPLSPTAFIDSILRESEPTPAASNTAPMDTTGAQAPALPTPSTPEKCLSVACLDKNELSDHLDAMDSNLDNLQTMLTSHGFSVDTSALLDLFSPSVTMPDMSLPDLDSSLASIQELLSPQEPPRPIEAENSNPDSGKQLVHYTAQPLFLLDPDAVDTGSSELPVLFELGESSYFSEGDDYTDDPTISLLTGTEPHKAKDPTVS
# [16] = tested on: Streptococcus; assay: GAS UMAA2166 growth inhibition – luminescence, BacTiterGlo, counter-screen for streptokinase expression inhibitor project, dose response (AID 1915); assay type: functional, organism-based;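 further: potency for reduction of bacterial viability or growth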
# [17] = reduction of Shn3 3'UTR-driven luciferase in osteoblasts – cell-based, Clone20 osteoblasts, firefly luciferase, cherry-picked, dose response (AID 624132); assay type: functional;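 further: firefly luciferase luminescence from reporter carrying the Shn3 3'UTR in osteoblasts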
# [18] = non-specific 3'UTR reporter inhibition in Clone20-Shn3RL – cell-based, Renilla luciferase, cherry-picked, counter-screen for Shn3 inhibitor project, dose response (AID 624133); assay type: functional
# [19] = target: Luciferin 4-monooxygenase (Photinus pyralis, UniProt P08659); assay: inhibition of purified Photinus pyralis luciferase – biochemical, luminescence, dose response (AID 1891)
# [20] = target: Cytochrome P450 2C19 (Homo sapiens, UniProt P33261); assay: Cytochrome panel assay with activity outcomes. Panel member name: p450-cyp2c19 Compounds with AC50 equal or less than 10 uM are considered active; assay type: functional
# [21] = Luminescence Cell-Based Dose Confirmation HTS to Identify Inhibitors of Platelet Dense Granule Release. [Related pubchem assays: 1663 (Primary HTS), 1678 (Summary of Project)]; assay type: functional
# [22] = target: T5, Cytochrome P450 1A2 (Homo sapiens, UniProt P05177);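 further: PubChem cytochrome P450 panel assay, CYP1A2 panel member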
# T5 sequence (P05177 whole entry): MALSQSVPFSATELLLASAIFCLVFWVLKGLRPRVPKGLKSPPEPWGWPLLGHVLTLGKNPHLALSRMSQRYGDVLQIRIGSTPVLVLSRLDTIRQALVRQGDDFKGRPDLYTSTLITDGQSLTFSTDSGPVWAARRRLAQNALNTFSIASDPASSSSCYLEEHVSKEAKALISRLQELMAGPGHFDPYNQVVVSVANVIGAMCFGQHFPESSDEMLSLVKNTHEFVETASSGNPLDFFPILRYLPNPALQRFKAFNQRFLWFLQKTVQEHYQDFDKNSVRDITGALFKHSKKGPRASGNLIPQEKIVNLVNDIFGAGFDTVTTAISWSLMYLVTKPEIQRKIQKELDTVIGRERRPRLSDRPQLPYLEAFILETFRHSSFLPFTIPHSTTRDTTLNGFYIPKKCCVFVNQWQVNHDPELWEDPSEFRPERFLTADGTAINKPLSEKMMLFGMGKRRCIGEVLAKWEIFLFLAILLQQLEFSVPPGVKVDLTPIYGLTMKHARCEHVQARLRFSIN
# [23] = target: Cytochrome P450 2D6 (Homo sapiens, UniProt P10635);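 further: CYP2D6 member of a cytochrome P450 panel assay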
# [24] = Luminescence Cell-Based Dose Retest to Confirm Inhibitors of Cancer Stem Cells. [Related pubchem assays (depositor defined):AID2717, AID2721]; assay type: functional; conditions: Homo sapiens
# [25] = viability of uninfected HEp-2 cells – cell-based, HTS, cytotoxicity control for RSV inhibitor project, dose response (AID 2410); assay type: functional; conditions: human respiratory syncytial virus
# T2 sequence (P11940 whole entry, the tested form may be a part): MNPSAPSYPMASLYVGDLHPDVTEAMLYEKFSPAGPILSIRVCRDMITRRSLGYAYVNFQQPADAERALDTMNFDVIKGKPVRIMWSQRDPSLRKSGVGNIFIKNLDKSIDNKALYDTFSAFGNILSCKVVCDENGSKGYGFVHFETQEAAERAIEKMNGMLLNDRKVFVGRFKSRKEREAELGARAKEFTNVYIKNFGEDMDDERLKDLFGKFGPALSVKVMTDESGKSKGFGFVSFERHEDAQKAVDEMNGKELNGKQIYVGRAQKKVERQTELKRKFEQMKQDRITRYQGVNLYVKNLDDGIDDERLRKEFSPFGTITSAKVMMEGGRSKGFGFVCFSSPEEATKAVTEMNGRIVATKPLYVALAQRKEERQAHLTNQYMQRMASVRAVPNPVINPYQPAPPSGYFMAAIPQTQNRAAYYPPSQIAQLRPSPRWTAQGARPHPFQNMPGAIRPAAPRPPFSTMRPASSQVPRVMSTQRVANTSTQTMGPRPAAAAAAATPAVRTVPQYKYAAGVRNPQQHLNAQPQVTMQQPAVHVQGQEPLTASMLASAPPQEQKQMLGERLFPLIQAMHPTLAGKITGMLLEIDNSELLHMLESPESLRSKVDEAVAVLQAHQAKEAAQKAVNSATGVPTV
# Chain of Cytochrome P450 2C19 (P33261 whole entry): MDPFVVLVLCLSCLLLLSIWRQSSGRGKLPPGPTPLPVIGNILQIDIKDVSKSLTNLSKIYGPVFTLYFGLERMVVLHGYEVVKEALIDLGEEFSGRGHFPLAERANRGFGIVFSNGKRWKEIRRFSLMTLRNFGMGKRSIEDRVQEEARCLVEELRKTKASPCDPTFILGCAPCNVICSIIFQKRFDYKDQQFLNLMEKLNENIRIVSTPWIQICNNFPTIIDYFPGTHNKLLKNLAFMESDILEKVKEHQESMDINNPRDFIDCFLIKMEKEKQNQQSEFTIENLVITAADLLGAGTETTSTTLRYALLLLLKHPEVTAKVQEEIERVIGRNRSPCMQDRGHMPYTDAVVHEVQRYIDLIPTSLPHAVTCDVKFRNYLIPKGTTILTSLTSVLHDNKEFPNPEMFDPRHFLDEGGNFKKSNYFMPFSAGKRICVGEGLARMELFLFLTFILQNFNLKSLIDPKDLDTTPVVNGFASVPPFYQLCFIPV
# Chain of Cytochrome P450 2C9 (P11712 whole entry): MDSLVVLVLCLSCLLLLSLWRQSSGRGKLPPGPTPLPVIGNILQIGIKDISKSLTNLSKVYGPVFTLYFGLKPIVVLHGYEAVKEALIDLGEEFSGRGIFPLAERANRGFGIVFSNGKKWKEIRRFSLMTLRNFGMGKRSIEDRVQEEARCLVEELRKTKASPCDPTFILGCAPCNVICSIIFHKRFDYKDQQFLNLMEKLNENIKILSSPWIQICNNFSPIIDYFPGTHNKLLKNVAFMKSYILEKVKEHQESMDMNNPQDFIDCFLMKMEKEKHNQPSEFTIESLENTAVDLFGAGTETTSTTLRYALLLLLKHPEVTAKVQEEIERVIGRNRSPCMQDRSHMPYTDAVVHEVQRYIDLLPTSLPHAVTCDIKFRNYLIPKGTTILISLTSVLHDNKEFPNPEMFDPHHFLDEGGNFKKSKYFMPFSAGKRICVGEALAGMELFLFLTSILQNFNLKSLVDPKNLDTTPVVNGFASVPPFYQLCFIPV
# Chain of Cytochrome P450 2D6 (P10635 whole entry): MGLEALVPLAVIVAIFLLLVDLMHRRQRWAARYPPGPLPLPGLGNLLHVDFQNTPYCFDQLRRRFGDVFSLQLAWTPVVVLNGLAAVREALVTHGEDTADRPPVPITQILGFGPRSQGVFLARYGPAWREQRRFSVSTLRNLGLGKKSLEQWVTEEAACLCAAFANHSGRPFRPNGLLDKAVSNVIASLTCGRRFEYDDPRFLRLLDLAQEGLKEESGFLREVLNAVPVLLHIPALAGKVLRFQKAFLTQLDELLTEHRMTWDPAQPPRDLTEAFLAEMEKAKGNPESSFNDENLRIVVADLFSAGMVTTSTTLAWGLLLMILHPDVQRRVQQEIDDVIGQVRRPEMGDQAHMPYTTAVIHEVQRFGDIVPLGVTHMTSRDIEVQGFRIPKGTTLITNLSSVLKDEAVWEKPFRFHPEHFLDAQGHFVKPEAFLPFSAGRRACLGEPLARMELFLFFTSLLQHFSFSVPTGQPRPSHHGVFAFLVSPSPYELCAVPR
# Chain of Luciferin 4-monooxygenase (P08659 whole entry): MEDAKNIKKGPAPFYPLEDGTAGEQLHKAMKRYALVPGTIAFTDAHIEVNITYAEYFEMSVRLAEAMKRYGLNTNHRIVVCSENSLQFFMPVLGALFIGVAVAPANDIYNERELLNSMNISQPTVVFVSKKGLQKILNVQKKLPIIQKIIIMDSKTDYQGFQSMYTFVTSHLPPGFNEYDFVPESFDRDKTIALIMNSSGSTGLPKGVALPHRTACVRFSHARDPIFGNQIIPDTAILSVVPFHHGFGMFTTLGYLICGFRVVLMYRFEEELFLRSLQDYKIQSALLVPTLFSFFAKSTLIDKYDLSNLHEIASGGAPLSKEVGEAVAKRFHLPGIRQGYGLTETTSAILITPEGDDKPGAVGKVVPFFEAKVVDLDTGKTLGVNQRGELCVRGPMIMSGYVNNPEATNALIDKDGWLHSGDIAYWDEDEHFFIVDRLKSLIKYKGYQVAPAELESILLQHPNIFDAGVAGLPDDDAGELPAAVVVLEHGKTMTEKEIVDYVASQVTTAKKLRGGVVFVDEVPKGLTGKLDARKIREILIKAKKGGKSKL
smiles,measurement,setting,value
COCCn1c(SCC(=O)Nc2cccc(C(=O)OC)c2)nc2ccccc2c1=O,EC50,[1],> 53 µM (inactive)
same,EC50,[2],> 120 µM (not active)
same,IC50,[3],> 47.1 µM (inactive)
same,EC50,[4],15.2 µM (active)
same,EC50,[5],36.7 µM (active)
CC(C)(C)n1nc2c(c1NC(=O)c1cc3ccccc3o1)CSC2,IC50,[6],> 66 µM (inactive)
same,IC50,[7],> 66 µM (inactive)
Cn1c(Cc2cccc3ccccc23)nnc1SCC(=O)N1CCN(c2ccccc2)CC1,AC50,[8],inconclusive
O=C(c1cccc(Cl)c1)c1nn(-c2ccccc2)c(=O)cc1C(F)(F)F,AC50,[9],23.8 µM (active)
same,EC50,[10],10.6 µM (active)
same,EC50,[11],12.3 µM (active)
O=C(NC(=S)Nc1ccc2c(c1)OCCO2)c1ccccc1,IC50,[6],> 66 µM (inactive)
same,IC50,[7],> 66 µM (inactive)
Nc1nc(N)c(/C=N/c2ccc(Br)cc2)c(Nc2ccc(Br)cc2)n1,CC50,[12],> 25 µM (active)
same,EC50,[13],1.11 µM (active)
same,EC50,[14],> 150 µM (not active)
same,EC50,[15],71.2 µM (active)
same,EC50,[16],3.09 µM (active)
CCc1c(C)sc(NC(=O)c2ccco2)c1C(=O)N1CCOCC1,IC50,[6],> 66 µM (inactive)
same,IC50,[7],> 66 µM (inactive)
O=[N+]([O-])c1cccc(C(=S)N2CCN(c3ccccc3F)CC2)c1,IC50,[6],> 66 µM (inactive)
same,IC50,[7],> 66 µM (inactive)
O=C1c2cccc3c(Cl)ccc(c23)C(=O)N1O,AC50,[8],inconclusive
CCCc1ccc(C(=O)NNc2cc(Cl)ccc2Cl)cc1,AC50,[17],2.59 µM (active)
same,AC50,[18],10.1 µM (active)
COc1ccccc1COC(=O)Nc1c(C)nn(C)c1Cl,AC50,[8],inconclusive
O=C(NCC(c1ccco1)N1CCCCC1)c1ccc(COc2ccc(Cl)cc2)cc1 (centres undefined),CC50,[12],> 25 µM (active)
COCCCNC(=O)Cn1nc(-c2ccccc2OC)ccc1=O,EC50,[19],> 112 µM (not active)
same,AC50,[20],inconclusive
same,AC50,[8],inconclusive
same,EC50,[21],> 112 µM (not active)
O=C(C[n+]1nc(CNc2ccc(Cl)cc2)n2c1CCCCC2)c1ccc(Br)cc1,EC50,[1],> 53 µM (inactive)
same,IC50,[3],> 47.1 µM (inactive)
same,EC50,[13],5.64 µM (active)
same,EC50,[14],12.5 µM (active)
same,EC50,[16],84.2 µM (active)
Cc1ccccc1C(=O)Nc1ccc2c(C#N)c3nc4ccccc4nc3n2c1,EC50,[10],6.62 µM (active)
same,EC50,[11],5.34 µM (active)
COc1ccc(O)c(C(=O)CC(=O)c2ccccc2C)c1,CC50,[12],20.4 µM (active)
same,EC50,[13],6.85 µM (active)
same,EC50,[14],> 150 µM (not active)
same,EC50,[16],49.1 µM (active)
Cc1nnc(C)n1/N=C/c1cccs1,EC50,[1],> 53 µM (inactive)
same,AC50,[22],17.8 µM (inconclusive)
same,IC50,[3],> 47.1 µM (inactive)
same,AC50,[20],inconclusive
Cc1cscc(C)c1=S,IC50,[6],> 66 µM (inactive)
same,IC50,[7],> 66 µM (inactive)
Oc1ccc(Cc2nccc3cc(O)c(O)cc23)cc1O [PAPAVEROLINE],AC50,[22],5.01 µM (inconclusive)
same,AC50,[8],inconclusive
Cn1ncc2c(Nc3ccc(-c4ccccc4)cc3)ncnc21,CC50,[12],> 25 µM (active)
COc1cc(C(=O)NCc2cccc3ccccc23)cc(Cl)c1OC,AC50,[23],15.8 µM (inconclusive)
same,AC50,[8],inconclusive
C/C(C[n+]1ccccc1)=N\N=C(N)N,AC50,[8],inconclusive
CCN(CC)c1ccc(C(=O)OCc2cc(=O)oc3cc(O)ccc23)cc1,AC50,[22],2.24 µM (inconclusive)
same,EC50,[2],> 120 µM (not active)
same,AC50,[24],4.72 µM (active)
same,EC50,[13],16.1 µM (active)
same,EC50,[14],128 µM (active)
same,AC50,[8],inconclusive
same,EC50,[10],7.3 µM (active)
same,EC50,[4],10.5 µM (active)
same,EC50,[5],9 µM (active)
same,EC50,[11],5.62 µM (active)
same,EC50,[16],> 150 µM (not active)
CC(C)CC(=O)/N=C1\SC2CS(=O)(=O)CC2N1Cc1ccccc1 (centres undefined),EC50,[10],41.1 µM (active)
same,EC50,[11],75.3 µM (active)
CSc1nc(C2CC2)cc(-c2cccs2)c1C#N,AC50,[20]; read-out: AC50,1.26 µM (inconclusive)
same,AC50,[8],inconclusive
same,CC50,[25],11.8 µM (active)
COc1ccccc1/C=C/c1nc(S(=O)(=O)c2ccccc2)c(N(C)C)o1,EC50,[1],> 53 µM (inactive)
same,IC50,[3],< 0.368 µM (active)
CCCc1nnc(NC(=O)CN2C(=O)C3C4C=CC(C4)C3C2=O)s1 (centres undefined),AC50,[20]; read-out: AC50,17.8 µM (inconclusive)
same,AC50,[8],inconclusive
